For orientation: IC50 means the concentration that inhibits the measured activity by half.

The target in one test is HA-GST-Rheb (GTP-γ-S loaded) activating mTORC1 (Homo sapiens (Human), UniProt Q15382). The test is described as follows: Rheb-dependent in vitro kinase assay (Rheb-IVK; LanthaScreen or Western readout). Details: IVK IC50 (μM): scale not given here. The following applies: Rheb-dependent in vitro kinase assay. The class given is biochemical. In general terms: Time-resolved FRET reads energy transfer from a long-lived donor to a nearby acceptor.
HA-GST-Rheb (GTP-γ-S loaded) activating mTORC1, sequence (Q15382 1-181): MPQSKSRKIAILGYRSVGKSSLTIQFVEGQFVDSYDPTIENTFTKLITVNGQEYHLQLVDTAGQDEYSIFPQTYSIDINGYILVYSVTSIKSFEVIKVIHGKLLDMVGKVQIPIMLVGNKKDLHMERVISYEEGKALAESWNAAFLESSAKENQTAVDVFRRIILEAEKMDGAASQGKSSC
Take `Cc1cc(Oc2ccccc2)cc2c1cc(CO)n2Cc1nc[nH]n1` [I-234]: the “IVK IC50 (μM)” value was “E/F”.

Still in this test, the particulars now being: Rheb-dependent in vitro kinase assay; read-out: IVK IC50.
In the case of `OCc1nc2c(OC[C@H]3CCCC[C@@H]3O)c(Cl)c(Cl)cc2[nH]1` (racemic) [I-383, (+,−)-trans-2-((5,6-dichloro-2-(hydroxymethyl)-1H-benzo[d]imidazol-4-yloxy)methyl)cyclohexanol], the concentration for half-maximal inhibition (IC50) was 10 to 100 µM.
On the same count and under the same terms, the same measure for `Cn1c(CO)nc2c(OC[C@H]3CCCC[C@@H]3O)c(Cl)c(Cl)cc21` (racemic) [I-387, (+,−)-trans-2-((5,6-dichloro-2-(hydroxymethyl)-1-methyl-1H-benzo[d]imidazol-4-yloxy)methyl)cyclohexanol]: 100 to 300 µM; for `OCc1nc2c(OC[C@H]3CCCC[C@@H]3O)c(Cl)c(Cl)cc2n1Cc1nn[nH]n1` (racemic) [I-391, (+,−)-trans-2-((1-((2H-tetrazol-5-yl)methyl)-5,6-dichloro-2-(hydroxymethyl)-1H-benzo[d]imidazol-4-yloxy)methyl)cyclohexanol]: 10 to 100 µM; for `COC(=O)c1cc2c(Sc3ccc(Cl)cc3Cl)cc(Cl)cc2n1Cc1ccc(Br)cc1` [I-104]: over 100 µM.
As for `COc1ccc(Sc2cc(Cl)cc3[nH]c(C(=O)O)cc23)cc1OC` [I-138, 6-chloro-4-(3,4-dimethoxyphenylthio)-1H-indole-2-carboxylic acid], the concentration for half-maximal inhibition (IC50) fell in the range of 100 to 300 µM.
`OCc1cc2c(Cl)cc(Oc3ccccc3)cc2n1Cc1c[nH]cn1` [I-174]: the half-inhibitory concentration (IC50) is over 100 µM.
Still for that read-out and setting: as for `O=C(c1ccc(Cl)cc1)c1cccc2[nH]ccc12` [I-178], the figure is over 100 µM; as for `Clc1ccc(Cc2cccc3[nH]ccc23)cc1` [I-179], over 100 µM; as for `OCc1cc2cc(Sc3ccccc3)ccc2n1Cc1nc[nH]n1` [I-181], over 100 µM.
The same measure, in the same setting: as for `OCc1ccc(Sc2cccc3[nH]ccc23)cc1` [I-183], the figure is over 100 µM.
With `CNC(=O)c1ccc(Sc2cccc3[nH]ccc23)cc1` [I-184], the IC50 is over 100 µM.
On the same count and under the same terms, as for `COC(=O)c1ccc(Sc2cccc3[nH]ccc23)cc1` [I-188], the figure is over 100 µM; as for `c1cnc(Nc2cccc3[nH]ccc23)nc1` [I-189], over 100 µM; as for `Clc1ccc(CSc2cccc3[nH]ccc23)cc1Cl` [I-191], over 100 µM.
With `O=C(O)c1ccc(Sc2cccc3[nH]ccc23)cc1` [I-192], the IC50 is over 100 µM.
Still for that read-out and setting: the same measure for `O=C(O)c1cc(Sc2ccc(Cl)cc2)c2cc[nH]c2c1` [I-193]: over 100 µM.
Take `COc1cccc(Sc2cccc3[nH]ccc23)c1` [I-195]: the IC50 was over 100 µM.
Turning to `Clc1ccc(Sc2cccc3c2ccn3Cc2nc[nH]n2)cc1` [I-196, 1-((1H-1,2,4-triazol-3-yl)methyl)-4-(4-chlorophenylthio)-1H-indole], the IC50 lay in the range of 10 to 100 µM.
On the same count and under the same terms, the same measure for `COC(=O)c1cc(Sc2ccc(Cl)cc2)c2cc[nH]c2c1` [I-197]: over 100 µM; for `OCc1cc2c(C3CCNCC3)cc(Oc3ccccc3)cc2[nH]1` [I-199]: over 100 µM.
The same measure, in the same setting: the same measure for `Clc1ccc(Sc2cc(Sc3ccc(Cl)cc3)c3cc[nH]c3c2)cc1` [I-200]: over 100 µM; for `Clc1ccc(Sc2cc(Cl)c3cc[nH]c3c2)cc1` [I-201, 4-chloro-6-(4-chlorophenylthio)-1H-indole]: 10 to 100 µM; for `Cc1cc2c(Sc3ccc(Cl)cc3)cccc2[nH]1` [I-203]: over 100 µM.
Still for that read-out and setting: the same measure for `Cn1ccc2c(Sc3ccc(Cl)cc3)cc(Cl)cc21` [I-205]: over 100 µM.
Regarding `Cn1c(CO)cc2c(Sc3ccc(Cl)cc3)cc(Cl)cc21` [I-206], the IC50 was over 100 µM.
Same read-out and setting: the same measure for `c1ccc(Sc2cccc3[nH]ccc23)nc1` [I-210]: over 100 µM.
The same measure, in the same setting: the same measure for `Clc1ccc(Sc2cccc3[nH]ccc23)cc1Cl` [I-211]: over 100 µM.
On the same count and under the same terms, as for `Cn1ccc(-c2cc(Oc3ccccc3)cc3[nH]c(CO)cc23)n1` [I-213], the figure is over 100 µM; as for `OCc1cc2ccc(Oc3ccccc3)cc2n1Cc1nc[nH]n1` [I-214], over 100 µM; as for `Clc1ccc(Sc2cccc3cc[nH]c23)cc1` [I-217], over 100 µM.
For the molecule `OCc1cc2c(C3CCCNC3)cc(Oc3ccccc3)cc2[nH]1` (stereo not drawn) [I-219], the IC50 is over 100 µM.
On the same count and under the same terms, the same measure for `OCc1cc2c(Br)cc(Oc3ccccc3)cc2n1Cc1ccc(-c2nn[nH]n2)cc1` [I-221]: over 100 µM.
As for `OCc1cc2c(C3CCCCC3)cc(Oc3ccccc3)cc2[nH]1` [I-223], the IC50 was over 100 µM.
Still for that read-out and setting: as for `OCc1cc2c(Br)cc(OCc3ccccc3)cc2n1Cc1ccccc1` [I-224], the figure is over 100 µM; as for `OCc1cc2c(Br)cc(Oc3ccccc3)cc2n1Cc1nc[nH]n1` [I-225], over 100 µM.
For `Cn1cc(-c2cc(Oc3ccccc3)cc3[nH]c(CO)cc23)cn1` [I-227], the half-maximal inhibitory concentration (IC50) was over 100 µM.
Still for that read-out and setting: the same measure for `Clc1cccc(Cl)c1Oc1cccc2[nH]ccc12` [I-228]: over 100 µM.
In the case of `[O-][S+](c1ccccc1)c1cc(Br)c2cc(CO)[nH]c2c1` (stereo not drawn) [I-229], the 50% inhibitory concentration (IC50) is over 100 µM.
Same read-out and setting: as for `O=S(=O)(c1ccccc1)c1cc(Br)c2cc(CO)[nH]c2c1` [I-230], the figure is over 100 µM; as for `[O-][S+](c1ccccc1Cl)c1cccc2[nH]ccc12` (stereo not drawn) [I-231], over 100 µM; as for `O=S(=O)(c1ccccc1Cl)c1cccc2[nH]ccc12` [I-232], over 100 µM.
Still for that read-out and setting: as for `[O-][S+](c1cccc(Cl)c1)c1cccc2[nH]ccc12` (stereo not drawn) [I-233], the figure is over 100 µM.
On to `Cc1cc(Oc2ccccc2)cc2[nH]c(CO)cc12` [I-238], for which the IC50 is over 100 µM.
On the same count and under the same terms, as for `O=S(=O)(c1cccc(Cl)c1)c1cccc2[nH]ccc12` [I-240], the figure is over 100 µM; as for `O=S(=O)(c1ccc(Cl)cc1)c1cccc2[nH]ccc12` [I-242], over 100 µM; as for `Cc1cc(Oc2ccccc2)cc2c1cc(CO)n2C` [I-245], over 100 µM.
Same read-out and setting: as for `O=C(O)CCc1cc2c(Oc3ccccc3)c(Cl)ccc2[nH]1` [I-253], the figure is over 100 µM.
Regarding `Clc1cc2cc[nH]c2cc1Oc1ccccc1` [I-258], the concentration for half-maximal inhibition (IC50) was over 100 µM.
Still for that read-out and setting: the same measure for `Cn1c(CO)cc2c(Oc3ccc(Cl)cc3)cccc21` [I-259]: over 100 µM; for `CC(=O)OCCc1cc2c(Oc3ccccc3)c(Cl)ccc2[nH]1` [I-260]: over 100 µM.
The same measure, in the same setting: as for `Cn1c(CO)cc2c(Oc3cccc(F)c3)cccc21` [I-262], the figure is over 100 µM.
Still for that read-out and setting: the same measure for `OCc1cc2c(Oc3cccc(F)c3)cccc2[nH]1` [I-264]: over 100 µM; for `Cn1ccc2c(Oc3ccc(F)cc3)cccc21` [I-265]: over 100 µM.
With `Cn1ccc2c(Oc3cccc(F)c3)cccc21` [I-266], the IC50 was over 100 µM.
Still for that read-out and setting: the same measure for `Cn1ccc2c(Oc3ccc(Cl)cc3)cccc21` [I-268]: over 100 µM; for `Cn1ccc2c(Oc3ccccc3Cl)cccc21` [I-269]: over 100 µM; for `Cn1ccc2c(Oc3cccc(Cl)c3)cccc21` [I-270]: over 100 µM.
On the same count and under the same terms, the same measure for `Cn1c(CO)cc2c(Oc3ccccc3Cl)cccc21` [I-272]: over 100 µM.
On to `Cn1c(CO)cc2c(Oc3ccc(F)cc3)cccc21` [I-273], for which the concentration for half-maximal inhibition (IC50) was over 100 µM.
Same read-out and setting: as for `Cn1c(CO)cc2c(Oc3ccccc3F)cccc21` [I-274], the figure is over 100 µM; as for `OCc1cc2c(Oc3ccccc3Cl)cccc2[nH]1` [I-276, (4-(2-chlorophenoxy)-1H-indol-2-yl)methanol], 100 to 300 µM; as for `OCc1cc2c(Oc3ccccc3F)cccc2[nH]1` [I-277, (4-(2-fluorophenoxy)-1H-indol-2-yl)methanol], 300 to 800 µM.
The same measure, in the same setting: the same measure for `OCc1cc2c(Oc3ccc(F)cc3)cccc2[nH]1` [I-278, (4-(4-fluorophenoxy)-1H-indol-2-yl)methanol]: 300 to 800 µM; for `OCc1cc2c(OCCc3ccccc3)cc(Cl)cc2[nH]1` [I-279]: over 100 µM; for `Cn1c(CO)cc2c(Oc3ccccc3)cccc21` [I-280]: over 100 µM.
Same read-out and setting: as for `Cn1c(CO)cc2c(Oc3ccccc3)cc(Cl)cc21` [I-281], the figure is over 100 µM; as for `Clc1cccc(Oc2cccc3[nH]ccc23)c1` [I-284, 4-(3-chlorophenoxy)-1H-indole], 10 to 100 µM.
Turning to `Clc1ccccc1Oc1cccc2[nH]ccc12` [I-285], the concentration for half-maximal inhibition (IC50) is over 100 µM.
Still for that read-out and setting: as for `OCc1cc2ccc(Oc3ccccc3)cc2[nH]1` [I-286, (6-Phenoxy-1H-indol-2-yl)methanol], the figure is 300 to 800 µM; as for `OCc1cc2c(Oc3ccccc3)cccc2[nH]1` [I-287], over 100 µM; as for `Cn1c(CO)cc2c(Oc3ccccc3)c(Cl)ccc21` [I-289], over 100 µM.
Regarding `Cn1c(CO)cc2c(OCc3ccccc3)cc(Cl)cc21` [I-292], the IC50 was over 100 µM.
Same read-out and setting: the same measure for `OCc1cc2c(OCc3ccccc3)cc(Cl)cc2[nH]1` [I-294]: over 100 µM; for `Cn1ccc2c(NC3CCNCC3)cccc21` [I-297, 1-methyl-N-(piperidin-4-yl)-1H-indol-4-amine]: 300 to 800 µM; for `Cn1ccc2c(NC3CCCNC3)cccc21` (stereo not drawn) [I-298]: over 100 µM.
The same measure, in the same setting: as for `Clc1cc2nc(-c3ccncc3)[nH]c2c(Cl)c1Cl` [I-353, 5,6,7-trichloro-2-(pyridin-4-yl)-1H-benzo[d]imidazole], the figure is over 3 µM.
As for `OCc1nc2c(OCCc3c[nH]cn3)c(Cl)c(Cl)cc2[nH]1` [I-384], the IC50 is over 100 µM.
`OCc1nc2c(OC[C@H]3CCCC[C@@H]3O)c(Cl)c(Cl)cc2n1Cc1nc[nH]n1` [I-392]: the IC50 is over 100 µM.
Still for that read-out and setting: as for `OCc1nc2c(OC[C@H]3CCCC[C@@H]3O)c(Cl)c(Cl)cc2n1Cc1cc(Cl)ccc1Cl` [I-393], the figure is over 100 µM; as for `OCc1nc2ccc(Oc3ccccc3)cc2n1Cc1nc[nH]n1` [I-397], over 100 µM.
Still for that read-out and setting: as for `OCc1nc2c(OCC3CCCCO3)c(Cl)c(Cl)cc2[nH]1` (stereo not drawn) [I-398], the figure is over 100 µM.
Same read-out and setting: as for `OCc1nc2c(OCC3CCCO3)c(Cl)c(Cl)cc2[nH]1` (stereo not drawn) [I-400, (5,6-dichloro-4-((tetrahydrofuran-2-yl)methoxy)-1H-benzo[d]imidazol-2-yl) methanol bis (2,2,2-trifluoroacetate)], the figure is 100 to 300 µM; as for `CCn1c(CO)nc2cc(OCc3cccc(Cl)c3)c(Cl)cc21` [I-401], over 100 µM.

(Values after patent US11339144B2 (Navitor Pharmaceuticals, Inc., priority 2017, dated 2022).)
